Assay results published in ChEMBL document CHEMBL1126379, “Pyrrole analogues of the pyrrolidinone moiety of the potassium channel activator cromakalim as relaxants of guinea pig trachealis” (Bioorg Med Chem Lett, 1992).

Legend:
Cavia porcellus [1] = species: Cavia porcellus; test: Inhibition of tone in guinea pig trachealis; format: functional
Cavia porcellus [2] = species: Cavia porcellus; test: Relaxant activity expressed as in vitro inhibition of tone in guinea pig trachealis; format: functional

IC50 (Cavia porcellus [2]) | Compound | Intrinsic activity (Cavia porcellus [1])
2400 nM | CC1(C)C=C(n2ccc(C#N)c2)c2cc(C#N)ccc2O1 | 0.89
1370 nM | CC1OC2=C(c3cc(C#N)ccc3OC2(C)C)n2cccc21 (stereo not drawn) | 0.8
1020 nM | CC1(C)C=C(n2ccc([N+](=O)[O-])c2)c2cc(C#N)ccc2O1 | 0.79
> 20000 nM | CC(=O)c1cccn1C1=CC(C)(C)Oc2ccc(C#N)cc21 | 0.22
370 nM | CC1(C)Oc2ccc(C#N)cc2[C@@H](n2cccc2[N+](=O)[O-])[C@@H]1O | 0.88
> 20000 nM | CCc1cccn1C1=CC(C)(C)Oc2ccc(C#N)cc21 | 0.32
4080 nM | CC1(C)C=C(n2cccc2)c2cc(C#N)ccc2O1 | 0.78
80 nM | CC1(C)Oc2ccc(C#N)cc2[C@H]2n3cccc3[C@@H](C(F)(F)F)O[C@]21O | 0.96
2900 nM | CC(=O)N[C@@H]1c2cc(C#N)ccc2OC(C)(C)[C@H]1O | 0.78
> 2000 nM | CC1(C)Oc2ccc(C#N)cc2C2=C1OC(c1ccccc1)c1cccn12 (stereo not drawn) | 0.21
> 20000 nM | CC1(C)Oc2ccc(C#N)cc2[C@@H](n2cccc2C(=O)C(F)(F)F)[C@@H]1O | 0.28
690 nM | CC1(C)C=C(n2cccc2C(=O)C(F)(F)F)c2cc(C#N)ccc2O1 | 0.91
690 nM | CC1(C)C=C(n2cccc2[N+](=O)[O-])c2cc(C#N)ccc2O1 | 0.88
> 20000 nM | CC1(C)Oc2ccc(C#N)cc2[C@@H](n2cccc2)[C@@H]1O | 0.19
1230 nM | C/C(=C\C#N)N[C@@H]1c2cc(C#N)ccc2OC(C)(C)[C@H]1O | 0.96
10400 nM | CC1(C)Oc2ccc(C#N)cc2[C@H]2n3cccc3CO[C@]21O | 0.85
 | CC1(C)Oc2ccc(C#N)cc2[C@@H](N2CCCC2=O)[C@@H]1O [CROMAKALIM] | 0.89
